Assay results reported in the supplement of paper PMC11208160.

Assay: recombinant barcode read abundance after kanamycin selection (control-corrected) (log10(CPM+1)); higher = more efficient recombination; sequences stand for … in AGTGCAGAGAAAATCGGCCAGTTTTCTCTGCCTGCAGTCCGCATGCCGT…AGATTTATGCAGCGGACTGCCTTTCTCCCAAAGTGATAAACCGGACAGTATCATGGACCGGTTTTCCCGGTAATCCGTATTTGCAAGGTTGGTTTCACT; site = the 11-nt target
Summary of the method: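 Recombination efficiency was calculated from barcode counts at recombinant junctions, normalized to counts per million, averaged and corrected by the control. Each value is given as log10(CPM+1). The constructs were Gibson-cloned oligos (promoter, target, barcode, J23119-driven first 104 bridge RNA bases) in a vector with the remaining 73 bp and a T7-inducible recombinase, co-electroporated into E. coli with a donor plasmid and plated in duplicate on chloramphenicol/ampicillin LB agar (control) or chloramphenicol/ampicillin/kanamycin with 0.1 mM IPTG.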
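Also: IS621 recombinase and bridge RNA in Escherichia coli cells.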

Row | Sequence | recombinant barcode read abundance (log10)
1 | GACTCGACTTGGGTTCTAACCTGTTGCTT (site GAATCAACTAA) | 0.122
2 | GACTCGACTTGGGTTCTAACCTGTTGCTT (site GACTCGACTAA) | 0.395
3 | GACTCTCCTTGGGTTCTAACCTGTTGCTT (site GACTCTCCTAA) | 1.53
4 | GACTCTCCTTGGGTTCTAACCTGTTGCTT (site GACTCTCCTAC) | 0.0892
5 | GACTCTCCTTGGGTTCTAACCTGTTGCTT (site GACTCTCCTAG) | 0.029
6 | GACTCTCCTTGGGTTCTAACCTGTTGCTT (site GACTCTCCTAT) | 0.241
7 | GACTGGTCTTGGGTTCTAACCTGTTGCAT (site GACTGGTCTAG) | 0.969
8 | GACTGGTCTTGGGTTCTAACCTGTTGCAT (site GACTGGTCTAT) | 1.6
9 | GACTGGTCTTGGGTTCTAACCTGTTGCCT (site GACTGGTCTAG) | 1.45
10 | GACTGGTCTTGGGTTCTAACCTGTTGCCT (site GACTGGTCTAT) | 0.364
11 | GACTTACCTTGGGTTCTAACCTGTTGCCT (site GACATACCTAG) | 0.134
12 | GACTTACCTTGGGTTCTAACCTGTTGCCT (site GACCTACCTAG) | 1.43
13 | GACTTACCTTGGGTTCTAACCTGTTGCCT (site GACGTACCTAG) | 0.111
14 | GACTTACCTTGGGTTCTAACCTGTTGCCT (site GACTTACCTAG) | 0.843
15 | GACTTGCCTTGGGTTCTAACCTGTTGCAT (site GACTTACCTAT) | 0.0511
16 | GACTTGCCTTGGGTTCTAACCTGTTGCAT (site GACTTCCCTAT) | 0.113
17 | GACTTGCCTTGGGTTCTAACCTGTTGCAT (site GACTTGCCTAT) | 0.313
18 | GACTTGCCTTGGGTTCTAACCTGTTGCAT (site GACTTTCCTAT) | 0.813
19 | GAGAAGACTTGGGTTCTAACCTGTTGCGT (site ACTCGTCCTTA) | 0.118
20 | GAGAAGACTTGGGTTCTAACCTGTTGCGT (site GAGAAGACTAC) | 2.56
21 | GAGACATCTTGGGTTCTAACCTGTTGCCT (site GAGAAATCTAG) | 0.11
22 | GAGACATCTTGGGTTCTAACCTGTTGCCT (site GAGACATCTAG) | 0.732
23 | GAGACATCTTGGGTTCTAACCTGTTGCCT (site GAGAGATCTAG) | 0.463
24 | GAGACATCTTGGGTTCTAACCTGTTGCCT (site GAGATATCTAG) | 0.206
25 | GAGAGAACTTGGGTTCTAACCTGTTGCCT (site CCATAGGCTCA) | 0.0856
26 | GAGAGAACTTGGGTTCTAACCTGTTGCCT (site GAGAGAACTAG) | 1.51

Row | Sequence | recombinant barcode read abundance (log10)
27 | GAGAGGTCTTGGGTTCTAACCTGTTGCGT (site GAGAGGTCTAA) | 0.502
28 | GAGAGGTCTTGGGTTCTAACCTGTTGCGT (site GAGAGGTCTAC) | 2.5
29 | GAGAGGTCTTGGGTTCTAACCTGTTGCGT (site GAGAGGTCTAG) | 0.613
30 | GAGAGGTCTTGGGTTCTAACCTGTTGCGT (site GAGAGGTCTAT) | 1.53
31 | GAGAGTCCTTGGGTTCTAACCTGTTGCCA (site ATTGAGACTAA) | 0.281
32 | GAGAGTCCTTGGGTTCTAACCTGTTGCCA (site GAGAGTCCTTG) | 1.24
33 | GAGATTCCTTGGGTTCTAACCTGTTGCCT (site CAGATTCCTAG) | 0.0463
34 | GAGATTCCTTGGGTTCTAACCTGTTGCCT (site GAGATTCCTAG) | 0.399
35 | GAGCAAACTTGGGTTCTAACCTGTTGCCT (site GAGCAAACTAG) | 1.2
36 | GAGCAAACTTGGGTTCTAACCTGTTGCCT (site GATCAATCTAG) | 0.16
37 | GAGCATACTTGGGTTCTAACCTGTTGCCT (site GAGCATACTAG) | 1.62
38 | GAGCATACTTGGGTTCTAACCTGTTGCCT (site GAGGGTACTAG) | 0.0325
39 | GAGCCACCTTGGGTTCTAACCTGTTGCCT (site AAGCCACCTAG) | 0.868
40 | GAGCCACCTTGGGTTCTAACCTGTTGCCT (site CAGCCACCTAG) | 0.236
41 | GAGCCACCTTGGGTTCTAACCTGTTGCCT (site GAGCCACCTAG) | 1.48
42 | GAGCCACCTTGGGTTCTAACCTGTTGCCT (site TAGCCACCTAG) | 0.911
43 | GAGCCGGCTTGGGTTCTAACCTGTTGCTT (site GAGACGGCTAA) | 0.0584
44 | GAGCCGGCTTGGGTTCTAACCTGTTGCTT (site GAGCCGGCTAA) | 1.32
45 | GAGCCGGCTTGGGTTCTAACCTGTTGCTT (site GAGGCGGCTAA) | 0.3
46 | GAGCCGGCTTGGGTTCTAACCTGTTGCTT (site GAGTCGGCTAA) | 0.337
47 | GAGCGAGCTTGGGTTCTAACCTGTTGCGG (site GAGCGAGCTCA) | 0.0195
48 | GAGCGAGCTTGGGTTCTAACCTGTTGCGG (site GAGCGAGCTCC) | 1.13
49 | GAGCGAGCTTGGGTTCTAACCTGTTGCGG (site GAGCGAGCTCG) | 0.196
50 | GAGCGAGCTTGGGTTCTAACCTGTTGCGG (site GAGCGAGCTCT) | 1.07
51 | GAGCGAGCTTGGGTTCTAACCTGTTGCTG (site GAGCGAGCTCA) | 1.5
52 | GAGCGAGCTTGGGTTCTAACCTGTTGCTG (site GAGCGAGCTCC) | 0.41

Row | Sequence | recombinant barcode read abundance (log10)
53 | GAGCGAGCTTGGGTTCTAACCTGTTGCTG (site GAGCGAGCTCG) | 0.529
54 | GAGCGAGCTTGGGTTCTAACCTGTTGCTG (site GAGCGAGCTCT) | 1.25
55 | GAGCGCTCTTGGGTTCTAACCTGTTGCAG (site GAGCGCTCTCT) | 1.42
56 | GAGCGCTCTTGGGTTCTAACCTGTTGCAG (site GAGTGCTCTCT) | 0.0694
57 | GAGCGTCCTTGGGTTCTAACCTGTTGCAG (site GAGCGTCCTCT) | 1.26
58 | GAGCGTCCTTGGGTTCTAACCTGTTGCAG (site GAGTTTCCTCT) | 0.0296
59 | GAGCGTCCTTGGGTTCTAACCTGTTGCCG (site CAGTGTCCTCG) | 0.0924
60 | GAGCGTCCTTGGGTTCTAACCTGTTGCCG (site GAGCGTCCTCG) | 0.739
61 | GAGCGTTCTTGGGTTCTAACCTGTTGCCT (site GAGCGCTCTCG) | 0.199
62 | GAGCGTTCTTGGGTTCTAACCTGTTGCCT (site GAGCGTTCTAG) | 1.47
63 | GAGCTACCTTGGGTTCTAACCTGTTGCCC (site GAGCTACCTAG) | 1.48
64 | GAGCTACCTTGGGTTCTAACCTGTTGCCC (site GAGCTACCTCG) | 0.199
65 | GAGCTACCTTGGGTTCTAACCTGTTGCCC (site GAGCTACCTGG) | 1.72
66 | GAGCTACCTTGGGTTCTAACCTGTTGCCC (site GAGCTACCTTG) | 0.85
67 | GAGCTAGCTTGGGTTCTAACCTGTTGCGT (site GAGCTAGCTAC) | 2.41
68 | GAGCTAGCTTGGGTTCTAACCTGTTGCGT (site GAGCTAGCTGC) | 0.155
69 | GAGGACTCTTGGGTTCTAACCTGTTGCCG (site GAGGACTCTAG) | 2.41
70 | GAGGACTCTTGGGTTCTAACCTGTTGCCG (site GAGGACTCTCG) | 2.32
71 | GAGGACTCTTGGGTTCTAACCTGTTGCCG (site GAGGACTCTGG) | 0.458
72 | GAGGACTCTTGGGTTCTAACCTGTTGCCG (site GAGGACTCTTG) | 0.476
73 | GAGGCTACTTGGGTTCTAACCTGTTGCAT (site ACAAGGGCTCA) | 0.0274
74 | GAGGCTACTTGGGTTCTAACCTGTTGCAT (site GAGGCTACTAT) | 1.26
75 | GAGGCTCCTTGGGTTCTAACCTGTTGCCC (site GAGGCTCCTAG) | 0.372
76 | GAGGCTCCTTGGGTTCTAACCTGTTGCCC (site GAGGCTCCTCG) | 0.174
77 | GAGGCTCCTTGGGTTCTAACCTGTTGCCC (site GAGGCTCCTGG) | 1.26
